# Measurements: the supplement of paper PMC10307832
# Experiments:
# Test in all cases: relative viability (nuclei count vs DMSO), 5 days (fraction); higher = more cells survive
# [1] = compound: C=CCn1c(=O)c2cnc(Nc3ccc(N4CCN(C)CC4)cc3)nc2n1-c1cccc(C(C)(C)O)n1 [Adavosertib] + CC(=O)c1c(C)c2cnc(Nc3ccc(N4CCNCC4)cn3)nc2n(C2CCCC2)c1=O [Palbociclib] (partner 0.5 µM)
# In short: (§1)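 Five library-drug doses in √10 steps were combined with a fixed anchor-drug dose, or a single drug was given alone, by pin tool to lung cancer cell lines in 1536-well plates the day after seeding. Nuclei were stained and counted after 5 days. Relative viability is the nuclei count in treated wells over that in vehicle wells, taken as the median of duplicate plates.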
# Adavosertib + Linsitinib = compound: C=CCn1c(=O)c2cnc(Nc3ccc(N4CCN(C)CC4)cc3)nc2n1-c1cccc(C(C)(C)O)n1 [Adavosertib] + C[C@]1(O)C[C@@H](c2nc(-c3ccc4ccc(-c5ccccc5)nc4c3)c3c(N)nccn32)C1 [Linsitinib] (partner 1 µM)
# In short: as §1
# Nelarabine + Luminespib = compound: COc1nc(N)nc2c1ncn2[C@@H]1O[C@H](CO)[C@@H](O)[C@@H]1O [Nelarabine] + CCNC(=O)c1noc(-c2cc(C(C)C)c(O)cc2O)c1-c1ccc(CN2CCOCC2)cc1 [Luminespib] (partner 0.01 µM)
# In short: as §1
# Nelarabine + Foretinib = compound: COc1nc(N)nc2c1ncn2[C@@H]1O[C@H](CO)[C@@H](O)[C@@H]1O [Nelarabine] + COc1cc2c(Oc3ccc(NC(=O)C4(C(=O)Nc5ccc(F)cc5)CC4)cc3F)ccnc2cc1OCCCN1CCOCC1 [Foretinib] (partner 0.25 µM)
# In short: as §1
cell line,measurement,setting,value
EMC-BAC-2,relative viability,[1]; first compound 0.03162 µM,0.542
same,relative viability,[1]; first compound 0.1 µM,0.516
same,relative viability,[1]; first compound 0.3162 µM,0.487
same,relative viability,Adavosertib + Linsitinib; first compound 0.01 µM,0.823
same,relative viability,Adavosertib + Linsitinib; first compound 0.03162 µM,0.798
same,relative viability,Adavosertib + Linsitinib; first compound 0.1 µM,0.862
same,relative viability,Adavosertib + Linsitinib; first compound 0.3162 µM,0.751
same,relative viability,Nelarabine + Luminespib; first compound 0.01 µM,1.41
same,relative viability,Nelarabine + Luminespib; first compound 0.03162 µM,1.16
same,relative viability,Nelarabine + Luminespib; first compound 0.1 µM,1.11
same,relative viability,Nelarabine + Luminespib; first compound 0.3162 µM,1.22
same,relative viability,Nelarabine + Luminespib; first compound 1 µM,1.28
same,relative viability,Nelarabine + Foretinib; first compound 0.01 µM,1.06
same,relative viability,Nelarabine + Foretinib; first compound 0.03162 µM,1
same,relative viability,Nelarabine + Foretinib; first compound 0.1 µM,0.913
same,relative viability,Nelarabine + Foretinib; first compound 0.3162 µM,0.975
same,relative viability,Nelarabine + Foretinib; first compound 1 µM,0.963
